From patent US12110284B2, “Fasoracetam crystalline forms” (The Children's Hospital of Philadelphia, priority 2018, dated 2024)
Read-outs that look alike come from different tables or passages of the source.

Tests used:
[1] = format: physicochemical; conditions: for first onset of weight loss / weight loss continues up to / water loss (initial weight loss): TGA; for first onset of weight loss / weight loss continues up to: nitrogen flow; for water loss (initial weight loss): equivalents of water
Experimental: TGA measurements were carried out on a METTLER TOLEDO TGA/SDTA 851e. Samples were placed in open aluminum oxide crucible. All experiments were performed under nitrogen flow.
A thermal analysis of all forms was performed in order to characterize the fasoracetam forms and to identify the stability of different forms. TGA measurements (FIG. 21) clearly mark the difference between the hydrated and anhydrated form. […] The weight loss continues up to 185° C. When the temperature is increased further, degradation occurs, starting around 260° C. The initial loss corresponds to 1.1 equivalent of water, as expected for a 1:1 stoichiometric hydrate. The slight deviation from the ideal stoichiometric ratio can be attributed to the crystallization conditions (the bulk material was obtained from an aqueous solution and the water remaining on the crystal surface or trapped between crystals is likely to cause the deviation observed). […] Analogous to Form I, degradation occurs which starts around 268° C. The observed water loss here is 0.9 equivalent, which is expected for a stoichiometric hydrate.

[2] = DSC enthalpy of fusion of fasoracetam forms; format: physicochemical
Experimental: DSC measurements were performed on a DSC 821 METTLER TOLEDO under continuous nitrogen flow. Perforated aluminium crucibles were used for analysis. Onsets were determined by manually constructing a tangent to the peak and a prolongation of the baseline. Total enthalpies were calculated by manual peak integration using a linear interpolation between the initial and final temperatures of integration. To obtain the normalized enthalpy, the total enthalpy was divided by the total sample mass. Ramp rates were typically done at 5° C./minute Using Burger's Heat of Fusion rule for both hydrated forms (Table 6), they should be monotropically related. Because both hydrates were obtained from different solvents (water and methanol for Forms I and II, respectively), a slurrying experiment where both vials were seeded with the opposite hydrate was performed and left under these conditions for 1 week.

[3] = cited from earlier work
[4] = tested on: mGluRs; conditions: in vitro; cited from earlier work
[5] = Hygroscopicity of the solid form; format: physicochemical
Experimental: In further embodiments of the disclosure, R-fasoracetam anhydrate is provided. […] This lack of water of crystallization is a characterizing feature of the anhydrate of R-fasoracetam with respect to Form I or Form II. FIG. 13 is an XRPD pattern of the anhydrate and any one or more of the peaks in that XRPD pattern may be used to characterize the anhydrate. Thus, one or more peaks at about 8.9°2θ, about 13.1°2θ, about 15.2°2θ, about 17.8°2θ, about 18.7°2θ, about 20.3°2θ, and about 22.7°2⊖ may be used to characterize the anhydrate form of R-fasoracetam. The anhydrate has an onset melting temperature at about 94° C. Thus, in another embodiment, an onset melting point of about 94° C. together with one or more peaks at about 8.9°2θ, about 13.1°2θ, about 15.2°2θ, about 17.8°2θ, about 18.7°2θ, about 20.3°2θ, and about 22.7°2⊖ may be used to characterize R-fasoracetam anhydrate. R-fasoracetam anhydrate may be further characterized by a diffraction pattern substantially the same as that of FIG. 13. A DSC thermogram of R-fasoracetam anhydrate appears in FIG. 25. The ramp rate was at 10° C. per minute. The R-fasoracetam anhydrate being hygroscopic, the sample in FIG. 25 was obtained by keeping R-fasoracetam monohydrate Form I under vacuum for a prolonged period at a temperature of 65° C.

[6] = Storage of the anhydrate at ambient conditions, conversion tracked daily via XRPD; format: physicochemical; conditions: 1-week period
[7] = Slurrying experiment of both hydrates seeded with the opposite hydrate, XRPD analysis; format: physicochemical; conditions: water and methanol slurries seeded with the opposite hydrate, 1 week
Experimental: Using Burger's Heat of Fusion rule for both hydrated forms (Table 6), they should be monotropically related. Because both hydrates were obtained from different solvents (water and methanol for Forms I and II, respectively), a slurrying experiment where both vials were seeded with the opposite hydrate was performed and left under these conditions for 1 week.

With O=C1CC[C@H](C(=O)N2CCCCC2)N1 [Form I, R-fasoracetam monohydrate Form I, reference compound] the degradation starts [1] was “around 260 °C”, the “first onset of weight loss” value [1] was 41 °C and the “weight loss continues up to” value [1] was 185 °C. The “water loss (initial weight loss)” value [1] was 1.1 equivalent and the “Enthalpy of Fusion (ΔHfus, J/g)” value ([2]; listed as Fasoracetam hydrate I) was -120.9 J/g.
In the case of O=C1CC[C@H](C(=O)N2CCCCC2)N1 [fasoracetam, R-fasoracetam], the “treatment of further disorders” value ([3]; subjects having ADHD and 22q11.2 Deletion Syndrome, anxiety, conduct disorder, Tourette's syndrome) is given as “successful”, the “treatment of ADHD” value ([3]; subjects having a genetic alteration in an mGluR network gene, clinical trial) is given as “successfully treated” and the “activity against mGluRs” value [4] is given as “nonselective activator against all classes of mGluRs”.
For O=C1CC[C@H](C(=O)N2CCCCC2)N1 [anhydrate, R-fasoracetam anhydrate], the degradation starts [1] was “around 260 °C”, the “first onset of weight loss” value [1] was “no particular weight loss up until degradation” and the “Enthalpy of Fusion (ΔHfus, J/g)” value [2] was -76.7 J/g. The hygroscopicity [5] was “hygroscopic” and the “conversion of solid form on storage” value [6] was “conversion to the stable hydrate occurs at ambient conditions over a 1-week period”.
For O=C1CC[C@H](C(=O)N2CCCCC2)N1 [Form II, R-fasoracetam monohydrate Form II], the degradation starts [1] was “around 268 °C”, the “first onset of weight loss” value [1] was 41 °C and the “weight loss continues up to” value [1] was 183 °C. For the same compound, the “water loss (initial weight loss)” value [1] was 0.9 equivalent, the “solid form stability in slurry” value [7] was “complete solution mediated polymorphic transition from Form II to Form I” and the “Enthalpy of Fusion (ΔHfus, J/g)” value ([2]; listed as Fasoracetam hydrate II) was -79.0 J/g.
